Assays:
IKZF2 = molecular target: T1, IKZF2 (Homo sapiens, UniProt Q96SW2+Q9UKS7); assay: Western blot, degradation of substrate protein in hPBMCs; type: cell-based
T1 construct: effects of the compounds of the present disclosure on the expression of target proteins in cells; endogenous in cells; host or cells: human PBMCs (Milecell Biotechnologies)

CK1α = molecular target: T2, CK1α (Homo sapiens, UniProt P48729+Q96SW2); assay: as above; type: cell-based
T2 construct: effects of the compounds of the present disclosure on the expression of target proteins in cells; endogenous in cells; host or cells: human PBMCs (Milecell Biotechnologies)
T2 sequence (P48729 whole entry): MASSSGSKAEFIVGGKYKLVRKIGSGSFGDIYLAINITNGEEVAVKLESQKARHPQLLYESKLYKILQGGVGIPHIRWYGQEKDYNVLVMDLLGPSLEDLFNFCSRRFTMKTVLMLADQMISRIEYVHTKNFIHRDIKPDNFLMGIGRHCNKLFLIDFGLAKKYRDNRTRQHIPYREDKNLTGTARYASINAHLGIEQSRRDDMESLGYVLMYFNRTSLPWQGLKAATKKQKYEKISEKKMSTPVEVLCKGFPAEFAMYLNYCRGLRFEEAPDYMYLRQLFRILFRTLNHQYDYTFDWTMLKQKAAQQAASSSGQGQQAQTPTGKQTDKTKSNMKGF
T2 sequence (Q96SW2 whole entry): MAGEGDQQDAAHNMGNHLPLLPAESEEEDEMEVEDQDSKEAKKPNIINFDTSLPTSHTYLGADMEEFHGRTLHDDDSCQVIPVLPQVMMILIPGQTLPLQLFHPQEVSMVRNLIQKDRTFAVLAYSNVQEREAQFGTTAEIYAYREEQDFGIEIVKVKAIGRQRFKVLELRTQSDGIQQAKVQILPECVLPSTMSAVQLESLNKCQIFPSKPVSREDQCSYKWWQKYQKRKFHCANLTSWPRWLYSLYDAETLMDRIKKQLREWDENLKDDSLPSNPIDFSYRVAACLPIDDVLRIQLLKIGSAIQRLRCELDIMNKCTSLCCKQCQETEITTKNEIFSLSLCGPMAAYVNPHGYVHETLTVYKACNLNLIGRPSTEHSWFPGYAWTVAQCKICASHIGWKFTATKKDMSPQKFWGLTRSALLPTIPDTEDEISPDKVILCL
T2 sequence (Q16531 whole entry partner): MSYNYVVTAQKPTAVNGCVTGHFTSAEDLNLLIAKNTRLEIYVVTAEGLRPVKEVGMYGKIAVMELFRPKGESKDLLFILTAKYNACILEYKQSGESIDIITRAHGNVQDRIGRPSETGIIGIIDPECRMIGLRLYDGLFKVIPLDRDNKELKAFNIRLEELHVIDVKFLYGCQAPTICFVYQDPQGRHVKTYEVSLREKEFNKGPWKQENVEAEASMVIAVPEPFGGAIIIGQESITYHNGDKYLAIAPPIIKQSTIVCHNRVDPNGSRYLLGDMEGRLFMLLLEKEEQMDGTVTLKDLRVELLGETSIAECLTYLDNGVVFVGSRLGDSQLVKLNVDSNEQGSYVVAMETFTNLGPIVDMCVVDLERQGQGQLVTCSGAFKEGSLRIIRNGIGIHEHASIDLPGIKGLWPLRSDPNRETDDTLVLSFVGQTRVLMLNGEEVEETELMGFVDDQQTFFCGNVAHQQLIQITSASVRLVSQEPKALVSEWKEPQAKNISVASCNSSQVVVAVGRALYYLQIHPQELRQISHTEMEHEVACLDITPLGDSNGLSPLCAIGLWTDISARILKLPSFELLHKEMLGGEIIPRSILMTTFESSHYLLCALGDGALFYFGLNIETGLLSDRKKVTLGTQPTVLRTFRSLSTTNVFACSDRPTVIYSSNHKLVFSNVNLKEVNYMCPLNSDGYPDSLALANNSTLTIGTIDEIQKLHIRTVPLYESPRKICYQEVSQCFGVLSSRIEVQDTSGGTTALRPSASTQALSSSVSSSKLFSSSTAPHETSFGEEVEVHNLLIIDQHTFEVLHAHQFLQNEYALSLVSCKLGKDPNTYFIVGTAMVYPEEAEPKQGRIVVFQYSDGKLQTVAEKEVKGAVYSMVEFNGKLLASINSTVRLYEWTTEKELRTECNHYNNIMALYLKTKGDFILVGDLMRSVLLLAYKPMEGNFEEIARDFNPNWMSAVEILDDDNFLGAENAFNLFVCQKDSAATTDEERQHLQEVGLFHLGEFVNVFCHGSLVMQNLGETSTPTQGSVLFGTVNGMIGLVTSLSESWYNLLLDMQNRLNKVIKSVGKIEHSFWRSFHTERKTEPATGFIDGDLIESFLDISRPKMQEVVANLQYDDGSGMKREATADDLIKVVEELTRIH

WEE1 = molecular target: T3, WEE1 (Homo sapiens, UniProt P30291+Q96SW2); assay: as above; type: cell-based
T3 construct: effects of the compounds of the present disclosure on the expression of target proteins in cells; endogenous in cells; host or cells: human PBMCs (Milecell Biotechnologies)
T3 sequence (P30291 whole entry): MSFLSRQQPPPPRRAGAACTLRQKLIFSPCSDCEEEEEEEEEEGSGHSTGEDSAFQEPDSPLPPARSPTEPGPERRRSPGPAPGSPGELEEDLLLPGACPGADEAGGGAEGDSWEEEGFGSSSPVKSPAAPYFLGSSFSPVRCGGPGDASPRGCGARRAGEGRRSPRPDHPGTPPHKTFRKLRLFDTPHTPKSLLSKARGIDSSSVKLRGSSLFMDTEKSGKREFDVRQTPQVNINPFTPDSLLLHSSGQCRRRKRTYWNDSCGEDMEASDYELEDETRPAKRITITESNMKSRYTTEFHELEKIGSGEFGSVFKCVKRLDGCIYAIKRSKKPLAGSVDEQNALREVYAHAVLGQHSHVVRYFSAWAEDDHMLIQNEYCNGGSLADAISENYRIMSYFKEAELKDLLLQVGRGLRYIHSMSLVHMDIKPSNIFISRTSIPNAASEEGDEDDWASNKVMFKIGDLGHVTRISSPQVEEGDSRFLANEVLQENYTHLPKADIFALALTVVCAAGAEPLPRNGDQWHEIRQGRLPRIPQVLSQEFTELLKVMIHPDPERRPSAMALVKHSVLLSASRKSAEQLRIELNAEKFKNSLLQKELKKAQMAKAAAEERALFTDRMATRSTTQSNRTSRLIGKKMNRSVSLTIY
T3 sequence (Q96SW2 whole entry): as the sequence (Q96SW2 whole entry) above
T3 sequence (Q16531 whole entry partner): as the sequence (Q16531 whole entry partner) above

IKZF1 = molecular target: T4, IKZF1 (Homo sapiens, UniProt Q13422+Q96SW2); assay: as above; type: cell-based
T4 construct: effects of the compounds of the present disclosure on the expression of target proteins in cells; endogenous in cells; host or cells: human PBMCs (Milecell Biotechnologies)
T4 sequence (Q13422 whole entry): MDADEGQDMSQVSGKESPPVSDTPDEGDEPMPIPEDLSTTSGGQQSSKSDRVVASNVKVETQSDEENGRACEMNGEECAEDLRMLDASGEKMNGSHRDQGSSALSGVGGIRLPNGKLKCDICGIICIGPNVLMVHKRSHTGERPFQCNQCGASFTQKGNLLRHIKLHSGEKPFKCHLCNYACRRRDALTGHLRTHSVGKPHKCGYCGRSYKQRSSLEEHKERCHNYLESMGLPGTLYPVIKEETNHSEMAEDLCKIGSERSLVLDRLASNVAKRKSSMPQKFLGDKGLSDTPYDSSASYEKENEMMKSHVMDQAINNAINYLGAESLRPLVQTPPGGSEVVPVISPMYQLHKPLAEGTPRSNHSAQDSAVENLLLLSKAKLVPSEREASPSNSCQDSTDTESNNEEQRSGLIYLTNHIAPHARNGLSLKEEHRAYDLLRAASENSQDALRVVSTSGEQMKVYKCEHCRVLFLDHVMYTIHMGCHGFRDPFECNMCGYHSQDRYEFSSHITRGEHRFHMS
T4 sequence (Q96SW2 whole entry): as the sequence (Q96SW2 whole entry) above
T4 sequence (Q16531 whole entry partner): as the sequence (Q16531 whole entry partner) above

IKZF3 = molecular target: T5, IKZF3 (Homo sapiens, UniProt Q96SW2+Q9UKT9); assay: as above; type: cell-based
T5 construct: effects of the compounds of the present disclosure on the expression of target proteins in cells; endogenous in cells; host or cells: human PBMCs (Milecell Biotechnologies)
T5 sequence (Q9UKT9 whole entry): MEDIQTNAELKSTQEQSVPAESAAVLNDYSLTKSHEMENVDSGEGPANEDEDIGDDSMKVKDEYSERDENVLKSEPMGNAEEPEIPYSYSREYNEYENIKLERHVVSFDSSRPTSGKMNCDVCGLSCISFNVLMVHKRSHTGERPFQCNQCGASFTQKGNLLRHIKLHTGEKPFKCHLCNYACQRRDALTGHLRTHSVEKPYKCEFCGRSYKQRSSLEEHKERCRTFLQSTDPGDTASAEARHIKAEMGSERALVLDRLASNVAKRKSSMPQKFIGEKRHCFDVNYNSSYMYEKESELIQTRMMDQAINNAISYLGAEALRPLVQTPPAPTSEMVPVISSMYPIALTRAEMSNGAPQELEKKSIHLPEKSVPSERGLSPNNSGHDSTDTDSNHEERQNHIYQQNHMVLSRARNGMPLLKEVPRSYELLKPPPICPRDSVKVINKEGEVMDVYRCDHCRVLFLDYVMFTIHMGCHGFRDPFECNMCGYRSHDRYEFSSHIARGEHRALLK
T5 sequence (Q96SW2 whole entry): as the sequence (Q96SW2 whole entry) above
T5 sequence (Q16531 whole entry partner): as the sequence (Q16531 whole entry partner) above

[1] = molecular target: T6, human Cereblon WT GST-tagged protein (Homo sapiens, UniProt Q96SW2); assay: CRBN-binding affinity, HTRF (CEREBLON BINDING kit); conditions: for inhibition at 0.5 µM: read-out: Inhibition Rate at 0.5 µM (%); for inhibition at 2 µM: read-out: Inhibition Rate at 2 µM (%)
T6 construct: purchased CISBIO 64BDCRBNPEH
T6 sequence (Q96SW2 whole entry): as the sequence (Q96SW2 whole entry) above

[2] = tested on: Human myeloid monocytic leukemia cell (MV-4-11); assay: Tumor cell proliferation inhibition (CellTiter-Meiluncell luminescent cell viability assay); conditions: MV4-11, 96 h; for inhibition at 0.01 µM: read-out: Inhibition Rate at 10 nM (%); for inhibition at 0.5 µM: read-out: Inhibition Rate at 500 nM (%)
GSPT1 = assay: Western blot, degradation of substrate protein in hPBMCs; type: cell-based, Human
[3] = tested on: Human multiple myeloma cell (MM.1S); assay: Tumor cell proliferation inhibition (CellTiter-Meiluncell luminescent cell viability assay); conditions: Homo sapiens, MM1.S, 96 h
[4] = Western blot, 24 hours of compound treatment, compounds tested at 50 nM and 500 nM (concentration for the table not stated)
[5] = 24 hours treatment, compounds at 50 nM and 500 nM (concentration behind the class not stated)

T1 sequence (Q9UKS7 whole entry): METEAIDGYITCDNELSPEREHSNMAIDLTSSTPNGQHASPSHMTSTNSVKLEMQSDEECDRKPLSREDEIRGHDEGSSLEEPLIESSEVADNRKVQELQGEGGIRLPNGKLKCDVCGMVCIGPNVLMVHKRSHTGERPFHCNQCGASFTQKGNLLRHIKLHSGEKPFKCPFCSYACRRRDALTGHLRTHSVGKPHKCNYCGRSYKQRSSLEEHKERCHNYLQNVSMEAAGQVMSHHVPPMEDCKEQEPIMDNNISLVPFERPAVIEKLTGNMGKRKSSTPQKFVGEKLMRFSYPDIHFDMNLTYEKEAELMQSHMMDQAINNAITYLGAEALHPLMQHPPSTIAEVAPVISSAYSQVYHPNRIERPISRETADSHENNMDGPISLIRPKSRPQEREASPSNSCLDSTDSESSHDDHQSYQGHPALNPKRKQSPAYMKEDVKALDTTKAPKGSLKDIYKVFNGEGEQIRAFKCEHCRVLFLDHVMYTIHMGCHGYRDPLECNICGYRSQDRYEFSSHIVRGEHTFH
T1 sequence (Q96SW2 whole entry): as the sequence (Q96SW2 whole entry) above
T1 sequence (Q16531 whole entry partner): as the sequence (Q16531 whole entry partner) above

Compound	inhibition at 0.5 µM [1] [%]	inhibition at 2 µM [1] [%]	IKZF2 substrate protein remaining % (IKZF2; [4])	CK1α substrate protein remaining % (CK1α; [4])	Wee1 substrate protein remaining % (WEE1; [4])	IKZF 1 substrate protein remaining % (IKZF1; [4])	IKZF3 substrate protein remaining % (IKZF3; [4])	inhibition at 0.01 µM [2] [%]	inhibition at 0.5 µM [2] [%]	GSPT1 substrate protein remaining % (GSPT1; [4])	IKZF2 substrate protein remaining % (IKZF2; [5])	CK1α substrate protein remaining % (CK1α; [5])	Wee1 substrate protein remaining % (WEE1; [5])	IKZF 1 substrate protein remaining % (IKZF1; [5])	IKZF3 substrate protein remaining % (IKZF3; [5])	GSPT1 substrate protein remaining % (GSPT1; [5])	inhibition at 0.01 µM ([3]; read-out: Inhibition Rate at 10 nM (%)) [%]	inhibition at 0.5 µM ([3]; read-out: Inhibition Rate at 500 nM (%)) [%]
Cc1ccsc1C1CCN(Cc2cccc3c2CN(C2CCC(=O)NC2=O)C3=S)CC1 (stereo not drawn) [GT-08314, 3-(4-((4-(3-methylthiophen-2-yl)piperidin-1-yl)methyl)-1-thioxoisoindolin-2-yl)piperidine-2,6-dione]	40 to 53	60 to 80	–	–	–	–	–	40 to 60	60 to 80	–	B (80%< substrate protein remaining %≤ 100%)	B (80%< substrate protein remaining %≤ 100%)	A (0% ≤ substrate protein remaining % ≤ 80%)	B (80%< substrate protein remaining %≤ 100%)	B (80%< substrate protein remaining %≤ 100%)	B (80%< substrate protein remaining %≤ 100%)	–	–
O=C1CCC(N2Cc3cc(CN4CCC(c5ccnc(F)c5F)CC4)ccc3C2=S)C(=O)N1 (stereo not drawn) [GT-08473, 3-(5-((4-(2,3-difluoropyridin-4-yl)piperidin-1-yl)methyl)-1-thioxoisoindolin-2-yl)piperidine-2,6-dione]	60 to 80	80 to 100	–	–	–	–	–	40 to 60	40 to 60	–	–	–	–	–	–	–	–	–
O=C1CCC(N2Cc3c(CN4CCC(c5c[nH]c6cc(F)ccc56)CC4)cccc3C2=S)C(=O)N1 (stereo not drawn) [GT-08492, 3-(4-((4-(6-fluoro-1H-indol-3-yl)piperidin-1-yl)methyl)-1-thioxoisoindolin-2-yl)piperidine-2,6-dione]	60 to 80	80 to 100	B (80%< substrate protein remaining %≤ 100%)	B (80%< substrate protein remaining %≤ 100%)	A (0% ≤ substrate protein remaining % ≤ 80%)	B (80%< substrate protein remaining %≤ 100%)	B (80%< substrate protein remaining %≤ 100%)	30 to 40	40 to 60	B (80%< substrate protein remaining %≤ 100%)	–	–	–	–	–	–	–	–
O=C1CCC(N2Cc3c(CN4CCC(c5ccccc5)CC4)cccc3C2=S)C(=O)N1 (stereo not drawn) [GT-08506, 3-(4-((4-phenylpiperidin-1-yl)methyl)-1-thioxoisoindolin-2-yl)piperidine-2,6-dione]	–	–	A (0% ≤ substrate protein remaining % ≤ 80%)	B (80%< substrate protein remaining %≤ 100%)	A (0% ≤ substrate protein remaining % ≤ 80%)	B (80%< substrate protein remaining %≤ 100%)	A (0% ≤ substrate protein remaining % ≤ 80%)	30 to 40	40 to 60	A (0% ≤ substrate protein remaining % ≤ 80%)	–	–	–	–	–	–	–	–
O=C1CCC(N2Cc3c(CN4CC=C(c5ncnc6sc7c(c56)CCCC7)CC4)cccc3C2=S)C(=O)N1 (stereo not drawn) [GT-08962, 3-(4-((4-(5,6,7,8-tetrahydrobenzo[4,5]thieno[2,3-d]pyrimidin-4-yl)-3,6-dihydropyridin-1(2H)-yl)methyl)-1-thioxoisoindolin-2-yl)piperidine-2,6-dione]	40 to 53	80 to 100	–	–	–	–	–	–	–	–	B (80%< substrate protein remaining %≤ 100%)	B (80%< substrate protein remaining %≤ 100%)	A (0% ≤ substrate protein remaining % ≤ 80%)	B (80%< substrate protein remaining %≤ 100%)	B (80%< substrate protein remaining %≤ 100%)	A (0% ≤ substrate protein remaining % ≤ 80%)	30 to 40	40 to 50
O=C1CCC(N2Cc3cc(CN4CCN(c5ncc(Cl)cc5Cl)CC4)ccc3C2=S)C(=O)N1 (stereo not drawn) [GT-09226, 3-(5-((4-(3,5-dichloropyridin-2-yl)piperazin-1-yl)methyl)-1-thioxoisoindolin-2-yl)piperidine-2,6-dione]	60 to 80	80 to 100	–	–	–	–	–	30 to 40	40 to 60	–	–	–	–	–	–	–	–	–
O=C1CCC(N2Cc3cc(CN4CCN(c5cccnc5)CC4)ccc3C2=S)C(=O)N1 (stereo not drawn) [GT-09229, 3-(5-((4-(pyridin-3-yl)piperazin-1-yl)methyl)-1-thioxoisoindolin-2-yl)piperidine-2,6-dione]	60 to 80	80 to 100	–	–	–	–	–	40 to 60	40 to 60	–	–	–	–	–	–	–	–	–
O=C1CCC(N2Cc3cc(CN4CCN(c5ccnc(F)c5F)CC4)ccc3C2=S)C(=O)N1 (stereo not drawn) [GT-09242, 3-(5-((4-(2,3-difluoropyridin-4-yl)piperazin-1-yl)methyl)-1-thioxoisoindolin-2-yl)piperidine-2,6-dione]	60 to 80	80 to 100	–	–	–	–	–	60 to 80	30 to 40	–	–	–	–	–	–	–	–	–
Cc1csc2ncnc(N3CCN(Cc4ccc5c(c4)CN(C4CCC(=O)NC4=O)C5=S)CC3)c12 (stereo not drawn) [GT-09281, 3-(5-((4-(5-methylthieno[2,3-d]pyrimidin-4-yl)piperazin-1-yl)methyl)-1-thioxoisoindolin-2-yl)piperidine-2,6-dione]	80 to 100	80 to 100	–	–	–	–	–	25 to 30	40 to 60	–	–	–	–	–	–	–	–	–

The next lines start with results.

inhibition at 0.5 µM [1] [%]	inhibition at 2 µM [1] [%]	Compound	IKZF2 substrate protein remaining % (IKZF2; [4])	CK1α substrate protein remaining % (CK1α; [4])	Wee1 substrate protein remaining % (WEE1; [4])	IKZF 1 substrate protein remaining % (IKZF1; [4])	IKZF3 substrate protein remaining % (IKZF3; [4])	inhibition at 0.01 µM [2] [%]	inhibition at 0.5 µM [2] [%]	GSPT1 substrate protein remaining % (GSPT1; [4])	IKZF2 substrate protein remaining % (IKZF2; [5])	CK1α substrate protein remaining % (CK1α; [5])	Wee1 substrate protein remaining % (WEE1; [5])	IKZF 1 substrate protein remaining % (IKZF1; [5])	IKZF3 substrate protein remaining % (IKZF3; [5])	GSPT1 substrate protein remaining % (GSPT1; [5])	inhibition at 0.01 µM ([3]; read-out: Inhibition Rate at 10 nM (%)) [%]	inhibition at 0.5 µM ([3]; read-out: Inhibition Rate at 500 nM (%)) [%]
30 to 40	60 to 80	O=C1CCC(N2Cc3c(CN4CCN(c5ccc(C(F)(F)F)cc5)CC4)cccc3C2=S)C(=O)N1 (stereo not drawn) [GT-08262, 3-(1-thioxo-4-((4-(4-(trifluoromethyl)phenyl)piperazin-1-yl)methyl)isoindolin-2-yl)piperidine-2,6-dione]	B (80%< substrate protein remaining %≤ 100%)	A (0% ≤ substrate protein remaining % ≤ 80%)	A (0% ≤ substrate protein remaining % ≤ 80%)	B (80%< substrate protein remaining %≤ 100%)	B (80%< substrate protein remaining %≤ 100%)	25 to 30	40 to 60	A (0% ≤ substrate protein remaining % ≤ 80%)	–	–	–	–	–	–	–	–
30 to 40	60 to 80	CC1(C)CCC(CN2CCN(Cc3cccc4c3CN(C3CCC(=O)NC3=O)C4=S)CC2)=C(c2ccc(Cl)cc2)C1 (stereo not drawn) [GT-08303, 3-(4-((4-((4'-chloro-5,5-dimethyl-3,4,5,6-tetrahydro-[1,1'-biphenyl]-2-yl)methyl)piperazin-1-yl)methyl)-1-thioxoisoindolin-2-yl)piperidine-2,6-dione]	–	–	–	–	–	40 to 60	40 to 60	–	–	–	–	–	–	–	–	–
30 to 40	60 to 80	O=C1CCC(N2Cc3c(CN4CCC(c5ccco5)CC4)cccc3C2=S)C(=O)N1 (stereo not drawn) [GT-08310, 3-(4-((4-(furan-2-yl)piperidin-1-yl)methyl)-1-thioxoisoindolin-2-yl)piperidine-2,6-dione]	–	–	–	–	–	40 to 60	60 to 80	–	B (80%< substrate protein remaining %≤ 100%)	B (80%< substrate protein remaining %≤ 100%)	A (0% ≤ substrate protein remaining % ≤ 80%)	B (80%< substrate protein remaining %≤ 100%)	B (80%< substrate protein remaining %≤ 100%)	B (80%< substrate protein remaining %≤ 100%)	–	–
40 to 53	60 to 80	Cc1cc(C2CCN(Cc3cccc4c3CN(C3CCC(=O)NC3=O)C4=S)CC2)cs1 (stereo not drawn) [GT-08316, 3-(4-((4-(5-methylthiophen-3-yl)piperidin-1-yl)methyl)-1-thioxoisoindolin-2-yl)piperidine-2,6-dione]	–	–	–	–	–	18 to 25	40 to 60	–	B (80%< substrate protein remaining %≤ 100%)	B (80%< substrate protein remaining %≤ 100%)	A (0% ≤ substrate protein remaining % ≤ 80%)	B (80%< substrate protein remaining %≤ 100%)	B (80%< substrate protein remaining %≤ 100%)	B (80%< substrate protein remaining %≤ 100%)	–	–
40 to 53	60 to 80	O=C1CCC(N2Cc3c(CN4CCN(c5ccc(Cl)cc5Cl)CC4)cccc3C2=S)C(=O)N1 (stereo not drawn) [GT-08500, 3-(4-((4-(2,4-dichlorophenyl)piperazin-1-yl)methyl)-1-thioxoisoindolin-2-yl)piperidine-2,6-dione]	B (80%< substrate protein remaining %≤ 100%)	B (80%< substrate protein remaining %≤ 100%)	A (0% ≤ substrate protein remaining % ≤ 80%)	B (80%< substrate protein remaining %≤ 100%)	B (80%< substrate protein remaining %≤ 100%)	30 to 40	40 to 60	A (0% ≤ substrate protein remaining % ≤ 80%)	–	–	–	–	–	–	–	–

Reference: patent publication EP4745135A1 (Gluetacs Therapeutics (Shanghai) Co., Ltd., priority 2023, dated 2025)
